# Read-outs that look alike come from different tables or passages of the source.
# Key:
# [1] = test system: Lactobacillus plantarum HAC03; assay: in vitro Simulated Stomach Duodenum Passage (SSDP) probiotic survivability, lyophilized HAC03; assay type: cell-based; details: for Artificial Bile Juice Survivability (%) / Artificial Bile Juice log CFU/mL / Artificial Gastric Juice Survivability (%) / Artificial Gastric Juice log CFU/mL / survivability compared with fresh cells, in words: Table 3; for Artificial Bile Juice Survivability (%) / Artificial Bile Juice log CFU/mL / Artificial Gastric Juice Survivability (%) / Artificial Gastric Juice log CFU/mL: carbohydrate mixed with HAC03 lyophilizate; for viability at 100000 µM: Lactiplantibacillus plantarum; for intestinal survivability (acid resistance and bile resistance) in words: compared to fresh bacteria / distilled water
# Procedure: The HAC03 strain was mixed with each of the single compositions and 1 mL of distilled water for 1 min. The compositions were formulated to have a final concentration of 0.1 M when dissolved in 1 ml of distilled water. Thereafter, 9 mL of distilled water adjusted to have a pH of 2.5 was added to each mixture. The pH was readjusted back to 2.5 in case of an increased pH due to the nature of some of the single ingredients (in order to not affect the survival of the probiotics). After adjusting the pH to 2.5, the tubes were incubated at 37° C. for 1 hour to apply the low-pH gastric stress condition. […] During the gastrointestinal tract assay, the samples were taken immediately, 1 hour, and […] after the incubation (t=0, 1, and 2). The probiotic survivability of each sample after gastric stress and bile stress was calculated by counting viable colonies.
# [2] = test system: Lactobacillus plantarum HAC03; assay: Zeta potential of lyophilized probiotics mixed with single ingredients (screening); assay type: cell-based; details: 0.1 M ingredient, rehydrated 1 min, pH 2.5
# Procedure: In this experimental example, Lactobacillus plantarum HAC03 (accession number: KCTC13242BP, the Korean Research Institute of Bioscience and Biotechnology) (hereinafter referred to as “HAC03”), which was described in Korean Patent Application No. 10-2017-0051574, was used as a probiotic strain.
# Afterwards, 2 mL of pH 2.5 distilled water was added to each sample, the pH was re-adjusted using HCl 0.1 N, and 800 μl of the calibrated sample was loaded in DTS1080 cuvettes. The electrophoretic mobility was measured by the Zetaizer Nano ZEN 3600 (Malvern Panalytica, UK) after 2 minutes of equilibration and the Smoluchowski equation was used to convert the data into zetapotential values.
# In this experiment, zeta potentials were measured at a pH of 2.5 in consideration of the highly acidic stomach environment, which is one of the initial hurdles that drastically reduce the survivability of the bacteria.
# [3] = HAC03, Table 1, 0.1 M ingredient, pH 2.5, 37° C., 1 hour, read-out: Stomach Survivability (%)
# [4] = HAC03, Table 1, 0.1 M ingredient, then bile salts (10% ox gall) and pH 6.0 synthetic duodenum juice, 2 hours, read-out: Duodenum Survivability (%)
# [5] = Table 1, 0.1 M ingredient, pH 2.5, 37° C., 1 hour
# [6] = Table 1, 0.1 M ingredient, then bile salts (10% ox gall) and pH 6.0 synthetic duodenum juice, 2 hours
# [7] = HAC03, 1 h, pH 2.5, read-out: Stomach Survivability (%)
# [8] = HAC03, 2 h, pH 6, read-out: Duodenum Survivability (%)
Compound,Artificial Bile Juice Survivability (%) [1],Artificial Bile Juice log CFU/mL [1],Artificial Gastric Juice Survivability (%) [1],Artificial Gastric Juice log CFU/mL [1],"viability at 100000 µM [1, 3]","viability at 100000 µM [1, 4]","Stomach log CFU/mL [1, 5]","Duodenum log CFU/mL [1, 6]",intestinal survivability (acid resistance and bile resistance) in words ([1]; Table 1),"zeta potential of lyophilized HAC03 mixed with the ingredient (sign, FIG. 1) [2]","viability at 100000 µM [1, 7]","viability at 100000 µM [1, 8]","survivability compared with fresh cells, in words [1]"
OC[C@@H](O)[C@@H](O)[C@H](O)[C@H](O)CO [Mannitol],11.77%,6.90 ± 0.44 log CFU/mL,20.04%,7.18 ± 0.32 log CFU/mL,,,,,,,,,
"N[C@@H](Cc1ccc(O)cc1)C(=O)O [L-Tyrosine, L-tyrosine]",,,,,73.5%,33.9%,7.98 ± 0.04 log CFU/mL,7.65 ± 0.01 log CFU/mL,increased in acid resistance and bile resistance,negative zeta potentials,,,
"NCCC[C@H](N)C(=O)O [L-Ornithine, L-ornithine]",,,,,,,7.75 ± 0.02 log CFU/mL,7.57 ± 0.03 log CFU/mL,,negative zeta potentials,,,
"O=C(O)CC(O)C(=O)O (centres unmarked) [Malic acid, malic acid]",,,,,< 0.01%,< 0.003%,<3.99 ± 0.00 log CFU/mL,<3.49 ± 0.00 log CFU/mL,intestinal survivability far inferior to that of distilled water,positive zeta potentials,,,
"O=C1O[C@H]([C@@H](O)CO)C(O)=C1O [L-Ascorbic acid, L-ascorbic acid]",,,,,,,4.08 ± 0.15 log CFU/mL,3.49 ± 0.00 log CFU/mL,intestinal survivability far inferior to that of distilled water,positive zeta potentials,0.4%,0.1%,
"N=C(N)NCCC[C@H](N)C(=O)O [L-Arginine, L-arginine]",,,,,,,4.00 ± 0.00 log CFU/mL,3.73 ± 0.34 log CFU/mL,intestinal survivability far inferior to that of distilled water,positive zeta potentials,0.13%,0.08%,
"N[C@@H](CC(=O)O)C(=O)O [L-Aspartic acid, L-aspartic acid]",,,,,29.9%,1.86%,7.06 ± 0.56 log CFU/mL,5.80 ± 0.64 log CFU/mL,intestinal survivability far inferior to that of distilled water,positive zeta potentials,,,
OC[C@H]1O[C@H](O[C@H]2O[C@H](CO)[C@@H](O)[C@H](O)[C@H]2O)[C@H](O)[C@@H](O)[C@@H]1O [Trehalose],28.10%,7.36 ± 0.03 log CFU/mL,54.75%,7.65 ± 0.05 log CFU/mL,,,,,,,,,survivability similar to or higher than that of fresh cells
O=C[C@@H](O)[C@H](O)[C@H](O)CO [Arabinose],9.45%,7.02 ± 0.35 log CFU/mL,17.78%,7.12 ± 0.67 log CFU/mL,,,,,,,,,
OC[C@H]1O[C@@](CO)(O[C@H]2O[C@H](CO)[C@@H](O)[C@H](O)[C@H]2O)[C@@H](O)[C@@H]1O [Sucrose],42.99%,7.71 ± 0.13 log CFU/mL,80.90%,7.99 ± 0.13 log CFU/mL,,,,,,,,,survivability similar to or higher than that of fresh cells
C[C@H](O)[C@H](O)[C@@H](O)[C@@H](O)C=O [Rhamnose],18.25%,7.53 ± 0.08 log CFU/mL,40.75%,7.87 ± 0.10 log CFU/mL,,,,,,,,,
O=C[C@H](O)[C@@H](O)[C@H](O)CO [Xylose],8.47%,6.97 ± 0.49 log CFU/mL,27.36%,7.50 ± 0.25 log CFU/mL,,,,,,,,,
OC[C@@H](O)[C@@H](O)[C@H](O)[C@@H](O)CO [Sorbitol],40.46%,7.69 ± 0.09 log CFU/mL,82.06%,8.00 ± 0.05 log CFU/mL,,,,,,,,,survivability similar to or higher than that of fresh cells
OC[C@H]1O[C@H](O[C@H]2[C@H](O)[C@@H](O)C(O)O[C@@H]2CO)[C@H](O)[C@@H](O)[C@@H]1O (mixture of isomers) [Maltose],33.79%,7.61 ± 0.13 log CFU/mL,85.43%,8.02 ± 0.05 log CFU/mL,,,,,,,,,survivability similar to or higher than that of fresh cells
"N[C@@H](Cc1c[nH]cn1)C(=O)O [L-Histidine, L-histidine]",,,,,56.6%,27.2%,7.83 ± 0.11 log CFU/mL,7.52 ± 0.08 log CFU/mL,increased in acid resistance and bile resistance,negative zeta potentials,,,
O=C(CO)[C@@H](O)[C@H](O)[C@H](O)CO [Fructose],20.73%,7.27 ± 0.48 log CFU/mL,46.18%,7.67 ± 0.37 log CFU/mL,,,,,,,,,survivability similar to or higher than that of fresh cells

# Reference: patent publication US20230346853A1, “Probiotic Lyophilizate Reactivation Composition for Improving Intestinal Survivability and Adhesion of Probiotics” (COSMAX NBT, INC., priority 2021, published 2023)
